Legend:
Assay in all cases: cells
Settings in all cases: Homo sapiens
TK-10 = assay type: functional, cell-based;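 note: growth inhibition of TK-10 cells, read out in a cell viability assay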
HT-144 = assay type: functional, cell-based
NEC8 = assay type: functional, cell-based;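 note: growth inhibition of human NEC8 cells, read out by a cell viability assay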
NB5 = assay type: functional, cell-based;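 note: growth inhibition of NB5 cells, read out as cell viability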
KALS-1 = assay type: functional, cell-based;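 note: growth inhibition of KALS-1 cells, determined with a cell viability assay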
EM-2 = assay type: functional, cell-based;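 note: growth inhibition of EM-2 cells, read out with a cell viability assay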
NCI-H1395 = assay type: functional, cell-based;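 note: cell viability assay read-out quantifying reduced proliferation of human NCI-H1395 cells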
VA-ES-BJ = assay type: functional, cell-based;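 note: growth inhibition of the VA-ES-BJ cell line, read out by a cell viability assay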
DEL = assay type: functional, cell-based;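 note: growth inhibition of the human DEL cell line, read out with a cell viability assay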
RKO = assay type: functional, cell-based;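 note: growth inhibition of human RKO cells, read out with a cell viability assay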
HD-MY-Z = assay type: functional, cell-based;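 note: growth inhibition of HD-MY-Z cells, read out with a cell viability assay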
NCI-H1092 = assay type: functional, cell-based;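 note: cell growth inhibition measured with a cell viability assay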
LOX IMVI = assay type: functional, cell-based
NCI-H2126 = assay type: functional, cell-based;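 note: growth inhibition of the cancer cell line, determined with a cell viability readout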
KARPAS-299 = assay type: functional, cell-based
TE-9 = assay type: functional, cell-based;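 note: cell growth inhibition, measured with a cell viability readout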
SF-126 = assay type: functional, cell-based;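 note: growth inhibition of human SF126 cells, read out with a cell viability assay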
TE-5 = assay type: functional, cell-based;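 note: inhibition of cell growth, read out by a cell viability assay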
KNS-81-FD = assay type: functional, cell-based;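 note: growth inhibition of KNS-81-FD cells, read out with a cell viability assay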
SK-PN-DW = assay type: functional, cell-based;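 note: growth inhibition measured with a viability assay on these cells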
EW-16 = assay type: functional, cell-based;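 note: growth inhibition of human EW-16 cells, read out as cell viability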
GR-ST = assay type: functional, cell-based
SW 962 = assay type: functional, cell-based;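 note: growth inhibition of human SW962 cells, read out by a cell viability assay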
COLO-800 = assay type: functional, cell-based;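 note: growth inhibition of COLO-800 cells, read out with a cell viability assay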
SBC-1 = assay type: functional, cell-based;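 note: cell viability assay measuring growth inhibition of the SBC-1 cell line, IC50 being the concentration that halves growth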
NCI-H1648 = assay type: functional, cell-based;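 note: cell viability assay measuring inhibition of NCI-H1648 cell growth, from the Sanger screening data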
IA-LM = assay type: functional, cell-based;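 note: cell viability assay measuring growth inhibition of human IA-LM cells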
SK-NEP-1 = assay type: functional, cell-based;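 note: growth inhibition of human SK-NEP-1 cells, read out by a cell viability assay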
EW-11 = assay type: functional, cell-based;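 note: growth inhibition of human EW-11 cells, measured with a cell viability assay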
no-10 = assay type: functional, cell-based;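 note: growth inhibition of no-10 cells, read out with a cell viability assay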
CGTH-W-1 = assay type: functional, cell-based;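 note: growth inhibition of human CGTH-W-1 cells measured by cell viability assay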
K562 = assay type: functional, cell-based
GAK = assay type: functional, cell-based
A101D = assay type: functional, cell-based;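 note: growth inhibition of the cell line, measured with a viability assay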
TE-12 = assay type: functional, cell-based;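 note: growth inhibition of TE-12 cells, read out by a cell viability assay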
MZ7-mel = assay type: functional, cell-based;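 note: growth inhibition of human MZ7-mel cells, measured by a cell viability assay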
KLE = assay type: functional, cell-based;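 note: growth inhibition of human KLE cells, read out with a cell viability assay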
KGN = assay type: functional, cell-based;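 note: growth inhibition of KGN cells, read out with a cell viability assay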
HC-1 = assay type: functional, cell-based;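 note: growth inhibition of HC-1 cells measured by a cell viability assay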
NCI-H1650 = assay type: functional, cell-based;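 note: growth inhibition of human NCI-H1650 cells measured by a cell viability assay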
RXF 393 = assay type: functional, cell-based;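 note: growth inhibition of human RXF 393 cells, read out with a cell viability assay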
Calu-6 = assay type: functional, cell-based;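 note: growth of human Calu-6 cells, read out by a cell viability assay, IC50 marking inhibition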
EW-3 = assay type: functional, cell-based;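 note: cell viability assay read-out, IC50 reflects inhibition of growth of the EW-3 cells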
SH-4 = assay type: functional, cell-based;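 note: growth inhibition of SH-4 cells, read out with a cell viability assay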
NCI-H23 = assay type: functional, cell-based;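 note: cell viability assay measuring growth inhibition of NCI-H23 cells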
KINGS-1 = assay type: functional, cell-based;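 note: cell viability assay measuring suppression of KINGS-1 cell growth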
ML-2 = assay type: functional, cell-based;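 note: growth inhibition of ML-2 cells, measured with a cell viability readout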
L-363 = assay type: functional, cell-based
TE-8 = assay type: functional, cell-based;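 note: growth inhibition of TE-8 cells, measured with a cell viability readout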
GOTO = assay type: functional, cell-based;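 note: growth inhibition of GOTO cells, read out by a cell viability assay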
SK-N-DZ = assay type: functional, cell-based;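 note: growth inhibition of the cancer cell line, read out through a viability assay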
MZ1-PC = assay type: functional, cell-based;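 note: cell viability assay measuring growth inhibition of human MZ1-PC cells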
DB = assay type: functional, cell-based
NCI-H1155 = assay type: functional, cell-based;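 note: cell growth inhibition measured by a viability assay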
EW-24 = assay type: functional, cell-based;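 note: human EW-24 cancer cell line, growth inhibition read out via a cell viability assay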
LB373-MEL-D = assay type: functional, cell-based;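 note: growth inhibition of the cell line, read out in a cell viability assay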
MS-1 = assay type: functional, cell-based;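 note: growth inhibition of MS-1 cells, read out by cell viability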
LC-2-ad = assay type: functional, cell-based;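 note: growth inhibition of human LC-2-ad cells, read out with a cell viability assay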
NCI-H226 = assay type: functional, cell-based
NCI-H1838 = assay type: functional, cell-based
COLO-668 = assay type: functional, cell-based
U-87 MG = assay type: functional, cell-based, U-87MG ATCC
no-11 = assay type: functional, cell-based
TGBC1TKB = assay type: functional, cell-based
NCI-H1355 = assay type: functional, cell-based
EKVX = assay type: functional, cell-based

Cc1[nH]c(/C=C2\C(=O)Nc3ccc(S(=O)(=O)Cc4c(Cl)cccc4Cl)cc32)c(C)c1C(=O)N1CCC[C@@H]1CN1CCCC1 [PHA-665752]
IC50 (TK-10): > 2000 nM | IC50 (HT-144): > 2000 nM | IC50 (NEC8): > 2000 nM | IC50 (NB5): > 2000 nM | IC50 (KALS-1): > 2000 nM | IC50 (EM-2): > 2000 nM | IC50 (NCI-H1395): > 2000 nM | IC50 (VA-ES-BJ): > 2000 nM | IC50 (DEL): > 2000 nM | IC50 (RKO): > 2000 nM | IC50 (HD-MY-Z): > 2000 nM | IC50 (NCI-H1092): > 2000 nM | IC50 (LOX IMVI): > 2000 nM | IC50 (NCI-H2126): > 2000 nM | IC50 (KARPAS-299): > 2000 nM | IC50 (TE-9): > 2000 nM | IC50 (SF-126): > 2000 nM | IC50 (TE-5): > 2000 nM | IC50 (KNS-81-FD): > 2000 nM | IC50 (SK-PN-DW): > 2000 nM | IC50 (EW-16): > 2000 nM | IC50 (GR-ST): > 2000 nM | IC50 (SW 962): > 2000 nM | IC50 (COLO-800): > 2000 nM | IC50 (SBC-1): > 2000 nM | IC50 (NCI-H1648): > 2000 nM | IC50 (IA-LM): > 2000 nM | IC50 (SK-NEP-1): > 2000 nM | IC50 (EW-11): > 2000 nM | IC50 (no-10): > 2000 nM | IC50 (CGTH-W-1): > 2000 nM | IC50 (K562): > 2000 nM | IC50 (GAK): […] | IC50 (A101D): > 2000 nM | IC50 (TE-12): > 2000 nM | IC50 (MZ7-mel): > 2000 nM | IC50 (KLE): > 2000 nM | IC50 (KGN): > 2000 nM | IC50 (HC-1): > 2000 nM | IC50 (NCI-H1650): > 2000 nM | IC50 (RXF 393): > 2000 nM | IC50 (Calu-6): > 2000 nM | IC50 (EW-3): > 2000 nM | IC50 (SH-4): > 2000 nM | IC50 (NCI-H23): > 2000 nM | IC50 (KINGS-1): 359 nM | IC50 (ML-2): > 2000 nM | IC50 (L-363): > 2000 nM | IC50 (TE-8): > 2000 nM | IC50 (GOTO): > 2000 nM | IC50 (SK-N-DZ): > 2000 nM | IC50 (MZ1-PC): > 2000 nM | IC50 (DB): > 2000 nM | IC50 (NCI-H1155): > 2000 nM | IC50 (EW-24): > 2000 nM | IC50 (LB373-MEL-D): > 2000 nM | IC50 (MS-1): > 2000 nM | IC50 (LC-2-ad): > 2000 nM | IC50 (NCI-H226): > 2000 nM | IC50 (NCI-H1838): > 2000 nM | IC50 (COLO-668): > 2000 nM | IC50 (U-87 MG): > 2000 nM | IC50 (no-11): > 2000 nM | IC50 (TGBC1TKB): > 2000 nM | IC50 (NCI-H1355): > 2000 nM | IC50 (EKVX): > 2000 nM

CC(C)=CC[C@@H](O)C1=CC(=O)c2c(O)ccc(O)c2C1=O [SHIKONIN]
IC50 (TK-10): 1220 nM | IC50 (HT-144): 561 nM | IC50 (NEC8): 840 nM | IC50 (NB5): 2430 nM | IC50 (KALS-1): 1320 nM | IC50 (EM-2): 977 nM | IC50 (NCI-H1395): > 16000 nM | IC50 (VA-ES-BJ): 401 nM | IC50 (DEL): 154 nM | IC50 (RKO): 270 nM | IC50 (HD-MY-Z): 470 nM | IC50 (NCI-H1092): 1390 nM | IC50 (LOX IMVI): 412 nM | IC50 (NCI-H2126): 15600 nM | IC50 (KARPAS-299): 799 nM | IC50 (TE-9): 408 nM | IC50 (SF-126): 773 nM | IC50 (TE-5): 1000 nM | IC50 (KNS-81-FD): 1080 nM | IC50 (SK-PN-DW): 36.5 nM | IC50 (EW-16): 299 nM | IC50 (GR-ST): 102 nM | IC50 (SW 962): 568 nM | IC50 (COLO-800): > 16000 nM | IC50 (SBC-1): 12100 nM | IC50 (NCI-H1648): 11100 nM | IC50 (IA-LM): 2080 nM | IC50 (SK-NEP-1): 1080 nM | IC50 (EW-11): 447 nM | IC50 (no-10): 290 nM | IC50 (CGTH-W-1): 500 nM | IC50 (K562): > 16000 nM | IC50 (GAK): 1040 nM | IC50 (A101D): < 62.5 nM | IC50 (TE-12): 2340 nM | IC50 (MZ7-mel): 114 nM | IC50 (KLE): 685 nM | IC50 (KGN): 1310 nM | IC50 (HC-1): > 16000 nM | IC50 (NCI-H1650): 1380 nM | IC50 (RXF 393): 749 nM | IC50 (Calu-6): 15700 nM | IC50 (EW-3): 722 nM | IC50 (SH-4): 371 nM | IC50 (NCI-H23): > 16000 nM | IC50 (KINGS-1): 14100 nM | IC50 (ML-2): 618 nM | IC50 (L-363): > 16000 nM | IC50 (TE-8): 1280 nM | IC50 (GOTO): 4590 nM | IC50 (SK-N-DZ): 1800 nM | IC50 (MZ1-PC): 19.3 nM | IC50 (DB): 726 nM | IC50 (NCI-H1155): > 16000 nM | IC50 (EW-24): 14600 nM | IC50 (LB373-MEL-D): 391 nM | IC50 (MS-1): 1770 nM | IC50 (LC-2-ad): 953 nM | IC50 (NCI-H226): 645 nM | IC50 (NCI-H1838): > 16000 nM | IC50 (COLO-668): 6200 nM | IC50 (U-87 MG): 1280 nM | IC50 (no-11): 805 nM | IC50 (TGBC1TKB): 1430 nM | IC50 (NCI-H1355): 2820 nM | IC50 (EKVX): 3670 nM

From ChEMBL document CHEMBL1201861, “Genomics of Drug Sensitity in Cancer screening data, Wellcome Trust Sanger Institute”
